Experimental data published in patent US20030224390A1, “Method of identifying conformation-sensitive binding peptides and uses thereof” (Karo Bio AB, priority 2000, published 2003).

Columns and labels:
Type in all cases: cell-based
androgen receptor [1] = biological target: T1, androgen receptor (Homo sapiens, UniProt P10275); design: expressed in transfected cells
T1 sequence (P10275 1-920): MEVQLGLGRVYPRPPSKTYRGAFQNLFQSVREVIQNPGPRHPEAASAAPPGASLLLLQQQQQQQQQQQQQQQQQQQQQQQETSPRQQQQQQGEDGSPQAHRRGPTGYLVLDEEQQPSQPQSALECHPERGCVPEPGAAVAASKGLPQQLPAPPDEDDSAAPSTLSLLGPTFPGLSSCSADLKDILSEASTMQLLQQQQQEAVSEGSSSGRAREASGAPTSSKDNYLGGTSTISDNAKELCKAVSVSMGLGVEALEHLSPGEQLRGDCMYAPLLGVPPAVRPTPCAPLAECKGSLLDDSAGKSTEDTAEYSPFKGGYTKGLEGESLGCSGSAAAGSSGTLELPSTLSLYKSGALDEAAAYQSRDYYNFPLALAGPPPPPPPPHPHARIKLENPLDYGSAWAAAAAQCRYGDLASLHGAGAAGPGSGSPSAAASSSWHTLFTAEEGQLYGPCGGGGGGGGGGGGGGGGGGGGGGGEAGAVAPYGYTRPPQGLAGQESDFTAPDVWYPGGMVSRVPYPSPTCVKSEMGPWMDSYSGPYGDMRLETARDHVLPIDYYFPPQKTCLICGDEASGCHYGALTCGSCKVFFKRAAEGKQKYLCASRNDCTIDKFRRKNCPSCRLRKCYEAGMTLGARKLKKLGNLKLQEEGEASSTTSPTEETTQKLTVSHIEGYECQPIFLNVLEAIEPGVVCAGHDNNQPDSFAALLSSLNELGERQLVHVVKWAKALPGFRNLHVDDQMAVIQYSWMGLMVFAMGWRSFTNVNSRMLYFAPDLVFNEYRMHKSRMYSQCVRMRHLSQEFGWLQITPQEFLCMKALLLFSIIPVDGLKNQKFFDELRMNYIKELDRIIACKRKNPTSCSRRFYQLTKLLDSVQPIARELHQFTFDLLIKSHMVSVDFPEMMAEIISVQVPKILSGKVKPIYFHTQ

androgen receptor [2] = biological target: T1, androgen receptor; design: expressed in transfected cells; remark: listed apart in the source
Description: We used a mammalian two-hybrid system to determine specificities of the AR-binding peptides previously identified, through screening of the aforementioned yeast library, as ligand-dependent in their binding activity. Ligand was provided to the cells so the interaction could be observed. The human hepatoma cell line, Huh-7, was used as the recipient of two-hybrid vectors, pM and pVP16 (Clontech) (FIGS. 6A and 6B), containing fusions with peptide and AR, respectively. According to Clontech literature, the Clontech vectors pM and VP16 generate fusions of protein X with the GAL4 DNA-BD and fusions of protein Y with the VP16AD, in the Mammalian MM Two-Hybrid Assay Kit (#K1602-1). (Note: pM and VP16 contain unique cloning sites in the same order and reading frame as the DNA-BD and AD, respectively, vectors in the yeast […] Two-Hybrid Systems.) A third vector, pG5CAT, provides a CAT reporter gene under the control of a GAL4-responsive element and minimal promoter of the adenovirus E1b. The three vectors are cotransfected into any suitable mammalian host cell line by standard methods. The interaction between proteins X and Y is then assayed by measuring CAT gene expression by any standard method. In the absence of activation (i.e., no protein-protein interaction), the minimal E1b promoter will not express significant levels of CAT.
Briefly, cells are seeded in a 24-well culture plate to a density of 50-80% confluence in phenol red-free media containing charcoal-dextran stripped fetal bovine serum (10%). Following incubation overnight, cells are transfected with plasmids pM-peptide, pVP16-AR, pCMV-b-gal, and p5XGAL-Luc3 DNAs using lipofectamine 2000 (LifeTech) according to the manufacturer's protocol. Transfections are allowed to proceed for 6 hours and the transfection media is aspirated and replaced with recovery media for 18 hours. Following the recovery period, cells are treated with compound for 24 hours prior to cell harvesting. Cells are washed with PBS and then lysed using the lysis buffer from the Galacto-Light Plus β-galactosidase assay kit (Tropix). Assays for luciferase and β-galactosidase were performed as described by the manufacturer. Peptide/AR interactions are described in terms of the luciferase activity normalized for transfection efficiency using β-galactosidase activity (see FIG. 4A). Two types of useful information arose from these methods: 1) we generated a panel of useful peptide probes to analyze the conformational state of AR, and 2) we “fingerprinted” AR modulators with respect to AR conformation (FIG. 4B). […] FIG. 4B is the converse of 4A. It compares the ability of six ligands (DHT, MPA, CYP, RU486, FLUT and DHEAs to interact with AR in the presence of each of four peptides (D30, 5G11, B8H3 and […]). Thus, it is a “fingerprint” of each of the six ligands using a four peptide panel. (Note that “1269” and D30” refer to the same peptide.)

androgen receptor [3] = biological target: T1, androgen receptor; test: Yeast two-hybrid screening of unbiased X15 peptide library, ligand induced β-galactosidase activity (FIG. 3, Table 503); design: expressed in transfected cells; host or cells: Saccharomyces cerevisiae PJ69-4α; ligand induced β-galactosidase activity, No Lig / ligand induced β-galactosidase activity, DHT / ligand induced β-galactosidase activity, CPA / ligand induced β-galactosidase activity, RU / ligand induced β-galactosidase activity, Test / ligand induced β-galactosidase activity, MPA: unit not given here
Description: Our library contained predominantly 15 random amino acid residues/peptide in order to identify motifs that might interact with nuclear receptor domains. If ligand is provided to the cells, one can screen for peptides that interact with the ligand-bound receptor. […] Included at the ends of the oligonucleotide were the synthetic restriction endonuclease cleavage sites, EcoRI or Mfe I (5′ end) and Sal I (3′ end). Oligonucleotides were annealed, then cleaved with excess restriction endonuclease and purified on agarose gels. The purified set of oligonucleotides was subcloned as an in-frame carboxy-terminal fusion to a Gal4 DNA binding domain (plasmid vector pMA424 derivative). […] The transformation mix was divided and grown on plates of selective media containing ligand and 25 mM 3-aminotriazole at 30° C. until colonies appeared in 3-7 days. […] Dihydrotestosterone (DHT) and medroxyprogesterone (MPA) were added to the media at 100 nM to identify peptides that interact with the receptor in the presence of ligand. After colonies appeared they were picked and dispersed into individual wells of a 96-well plate containing rich media (YPD).
To determine ligand dependence, two microliter aliquots were removed from the cell suspension, and arrayed and spotted onto each of two rectangular agar plates, one with 100 nM ligand and one without ligand. Growth was monitored daily.
A secondary test of ligand dependent activation was performed using the integrated GAL4-driven lacZ gene. Cell suspensions of the initial positive clones were diluted 20-fold into 20 microliters of rich media in a microplate and grown overnight at 30° C. in the presence and absence of ligand. Microplates were centrifuged for 5 minutes at 3000 rpm in a swinging table top centrifuge to pellet the yeast cells, and the overlying media was aspirated. […] An OD650 density determination was made to normalize the β-galactosidase activity. β-galactosidase activity was monitored following the addition of buffer containing chlorophenol red-β-galactopyranoside (CPRG) (Boehringer Mannheim) substrate at a final concentration of 0.5 mM. […] The maximum slope value of this measurement was normalized to cell density from the initial OD650 value, and the relative ligand dependence of β-galactosidase was determined by comparing the values plus and minus ligand.
In FIG. 3, all of these ligands were tested. The plasmids from true positives were extracted using standard yeast extraction protocols and re-transformed to verify the positive phenotype.

Binding to the androgen receptor in the presence of both agonists and known antagonists (androgen receptor [1]; ligand present): displays binding
Binding to the androgen receptor in the absence of ligand (androgen receptor [1]; no ligand): not
luciferase normalized to β-galactosidase, CYP. (androgen receptor [2]): 16.02
luciferase normalized to β-galactosidase, DHT (androgen receptor [2]; mammalian two-hybrid, Huh-7 cells, ligand DHT): 19.64
luciferase normalized to β-galactosidase, MPA (androgen receptor [2]; mammalian two-hybrid, Huh-7 cells, ligand MPA): 18.51
luciferase normalized to β-galactosidase, RU486 (androgen receptor [2]; mammalian two-hybrid, Huh-7 cells, ligand RU486): 10.1916
luciferase normalized to β-galactosidase, no compound (androgen receptor [2]; mammalian two-hybrid, Huh-7 cells, no compound): 0.2091
Fold induction (androgen receptor [3]; untitled table before Table 503, values match DHT / No Lig of Table 503): 4
ligand induced β-galactosidase activity, CPA (androgen receptor [3]; yeast two-hybrid, ligand CPA): 0.5635
ligand induced β-galactosidase activity, DHT (androgen receptor [3]; yeast two-hybrid, ligand DHT): 1.75
ligand induced β-galactosidase activity, RU (androgen receptor [3]; yeast two-hybrid, ligand RU): 0.8
ligand induced β-galactosidase activity, No Lig (androgen receptor [3]; yeast two-hybrid, no ligand): 0.4989
Substance: EFQQCMCAEVKSWLGGSLDLQPS* [B8E9]
